According to PMC5983862, “Insight into small molecule binding to the neonatal Fc receptor by X-ray crystallography and 100 kHz magic-angle-spinning NMR” (PLoS Biology, 2018):

How the values were obtained:
[1] = molecular target: soluble extracellular domain of the neonatal Fc receptor (FcRnECD), heterodimer of α-chain and β2m, from insect cells (human); experiment: crystal structure; FcRnECD from insect cells; crystals at pH 3 (PEG 6000, citric acid/ammonium citrate) and at pH 8.5 (Bis-Tris propane, NaI, PEG 3350); compounds soaked into pH 3 crystals; two heterodimers in the asymmetric unit
[2] = molecular target: T1, neonatal Fc receptor (FcRn) α-chain, extracellular domain (FcRnECD) (Homo sapiens, UniProt P55899+P61769); experiment: SPR Kd; X-ray crystal structure; MAS NMR chemical-shift perturbations; type: binding
T1 construct: gene FCGRT; extracellular domain (ECD) (amino acids 1–297) of human FcRn α-chain, with human β2m; with β2-microglobulin (β2m, B2M)
T1 sequence (P55899 24-297): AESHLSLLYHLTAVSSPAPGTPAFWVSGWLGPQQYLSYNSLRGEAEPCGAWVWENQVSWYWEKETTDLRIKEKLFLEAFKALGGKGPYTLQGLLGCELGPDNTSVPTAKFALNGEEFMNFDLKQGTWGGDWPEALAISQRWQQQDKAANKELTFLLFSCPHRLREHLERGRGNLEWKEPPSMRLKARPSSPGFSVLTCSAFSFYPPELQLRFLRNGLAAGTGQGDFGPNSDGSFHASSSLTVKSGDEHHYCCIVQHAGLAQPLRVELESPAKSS
T1 sequence (P61769 21-119): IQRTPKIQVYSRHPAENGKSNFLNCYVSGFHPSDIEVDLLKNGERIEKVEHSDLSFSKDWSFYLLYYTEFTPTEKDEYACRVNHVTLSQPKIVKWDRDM

[3] = molecular target: T1, neonatal Fc receptor (FcRn) α-chain, extracellular domain (FcRnECD); experiment: affinity measurement (SPR implied); type: binding
[4] = molecular target: T1, neonatal Fc receptor (FcRn) α-chain, extracellular domain (FcRnECD); experiment: SPR Kd; X-ray crystal structure; […] CPMG and STD NMR fragment screen; type: binding

“soluble extracellular domain of the neonatal Fc receptor (FcRnECD), heterodimer of α-chain and β2m, from insect cells (complex)” showed a stoichiometry N [1] of 2.
`COC(=O)C1=C(c2cccnc2)Nc2ncnn2C1c1cc(F)cc(F)c1` (stereo not shown) [UCB-FcRn-303, Methyl 7-(3,5-difluorophenyl)-5-(3-pyridyl)-4,7-dihydro-[1,2,4]triazolo[1,5-a]pyrimidine-6-carboxylate] was tested, and the Kd [2] was 2400 nM.
In the case of `CC(=O)C1=C(C)Nc2ncnn2C1c1cc(F)cc(F)c1` (racemic) [1-[7-(3,5-Difluorophenyl)-5-methyl-4,7-dihydro-[1,2,4]triazolo[1,5-a]pyrimidin-6-yl]ethanone], the Kd [3] is reported as 2400 nM.
For `CC(=O)C1=C(C)Nc2ncnn2C1c1cccc(F)c1` (racemic) [UCB-FcRn-84, 1-[7-(3-fluorophenyl)-5-methyl-4,7-dihydro-[1,2,4]triazolo[1,5-a]pyrimidin-6-yl]ethanone], the Kd [4] was ~80000 nM.
